Reference: patent US9676714B2, “Sulfonylindole derivatives and method for preparing the same” (Daewoong Pharmaceutical Co., Ltd., priority 2013, dated 2017)
Structures can show the parent of a compound that is named as a salt.

Molecular target: T1, proton pump (H+/K+-ATPase) (Sus scrofa, UniProt P19156)
T1 construct: Gastric vesicles were prepared from hog stomach via centrifugal separation; from tissue; host or cells: hog stomach (gastric vesicles, method of Rabon et al. 1988)
Assay: Measurement of inhibitory effects on proton pump (H+/K+-ATPase) activities
Format: biochemical
Settings: hog gastric vesicles, K+-specific H+/K+-ATPase activity, Tris-HCl buffer pH 7.4, 37° C. for 40 minutes, malachite green Pi readout
Procedure, shortened: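 Hog gastric vesicles in 60 mmol/l Tris-HCl pH 7.4 with 0.5% DMSO were treated with compounds at room temperature; reaction was started with 10 μl of 10 mmol/l ATP stock. Released Pi was read at 570 nm, K+-specific activity taken as the ±K+ difference. IC50 from 4-parameter logistic fit.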

T1 sequence (P19156 whole entry): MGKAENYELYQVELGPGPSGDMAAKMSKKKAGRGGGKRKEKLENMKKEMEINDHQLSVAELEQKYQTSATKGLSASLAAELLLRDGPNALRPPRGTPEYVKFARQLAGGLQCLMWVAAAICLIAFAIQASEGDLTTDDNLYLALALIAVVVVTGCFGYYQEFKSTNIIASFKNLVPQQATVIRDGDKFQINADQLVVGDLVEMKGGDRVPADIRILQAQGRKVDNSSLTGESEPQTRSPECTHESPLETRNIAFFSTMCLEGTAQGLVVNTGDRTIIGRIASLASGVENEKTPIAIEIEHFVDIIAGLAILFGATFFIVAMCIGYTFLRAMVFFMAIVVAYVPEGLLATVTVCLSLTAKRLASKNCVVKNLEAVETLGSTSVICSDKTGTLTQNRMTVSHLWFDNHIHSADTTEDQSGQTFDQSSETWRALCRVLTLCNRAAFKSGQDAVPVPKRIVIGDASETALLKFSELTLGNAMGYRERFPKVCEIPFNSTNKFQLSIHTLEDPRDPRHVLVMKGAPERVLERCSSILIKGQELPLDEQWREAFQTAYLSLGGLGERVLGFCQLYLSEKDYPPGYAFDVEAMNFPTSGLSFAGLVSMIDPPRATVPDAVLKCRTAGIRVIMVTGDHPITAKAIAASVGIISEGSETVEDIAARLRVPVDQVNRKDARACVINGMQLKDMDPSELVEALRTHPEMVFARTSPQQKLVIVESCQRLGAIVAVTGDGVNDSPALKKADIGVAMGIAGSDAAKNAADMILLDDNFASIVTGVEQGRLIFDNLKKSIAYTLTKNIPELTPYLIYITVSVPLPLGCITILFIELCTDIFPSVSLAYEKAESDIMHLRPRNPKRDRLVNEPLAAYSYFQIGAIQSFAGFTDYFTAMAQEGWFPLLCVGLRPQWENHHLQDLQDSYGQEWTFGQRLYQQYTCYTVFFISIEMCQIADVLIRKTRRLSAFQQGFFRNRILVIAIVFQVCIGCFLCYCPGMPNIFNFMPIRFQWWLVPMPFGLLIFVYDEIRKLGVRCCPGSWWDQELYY
T1 sequence (P18434 whole entry partner): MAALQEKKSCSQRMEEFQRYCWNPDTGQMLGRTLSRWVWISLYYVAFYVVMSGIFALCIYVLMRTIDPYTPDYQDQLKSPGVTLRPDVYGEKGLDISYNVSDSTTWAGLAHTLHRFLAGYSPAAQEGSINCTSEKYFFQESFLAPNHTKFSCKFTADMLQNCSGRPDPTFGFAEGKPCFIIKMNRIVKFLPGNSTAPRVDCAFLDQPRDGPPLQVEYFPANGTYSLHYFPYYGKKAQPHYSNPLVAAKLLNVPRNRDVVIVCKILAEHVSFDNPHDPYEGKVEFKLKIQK

| SMILES | IC50 [nM] |
| --- | --- |
| CNCc1cn(S(=O)(=O)c2cccc(OC(F)(F)F)c2)c2cc(Cc3ccc(OC)nc3Cl)ccc12 [Example 297, 1-(6-((2-chloro-6-methoxypyridin-3-yl)methyl)-1-((3-(trifluoromethoxy)phenyl)sulfonyl)-1H-indol-3-yl)-N-methylmethanamine] | 1190 |
| CNCc1cn(S(=O)(=O)c2ccc(C)cc2)c2cc(Nc3ccc(C)cc3F)ccc12 [Example 229, N-(2-fluoro-4-methylphenyl)-3-((methylamino)methyl)-1-tosyl-1H-indol-6-amine hydrochloride] | 1110 |
| CNCc1cn(S(=O)(=O)c2cccnc2)c2cc(Nc3ccc(C#N)cc3C(F)(F)F)ccc12 [Example 40, 4-((3-((methylamino)methyl)-1-(pyridin-3-ylsulfonyl)-1H-indol-6-yl)amino)-3-(trifluoromethyl)benzonitrile hydrochloride] | 1830 |
| CNCc1cn(S(=O)(=O)c2cccnc2)c2cc(Nc3c(Cl)cc(F)cc3Cl)ccc12 [Example 84, N-(2,6-dichloro-4-fluorophenyl)-3-((methylamino)methyl)-1-(pyridin-3-ylsulfonyl)-1H-indol-6-amine hydrochloride] | 530 |
| CNCc1cn(S(=O)(=O)c2cccnc2)c2cc(-c3ccc(F)nc3)ccc12 [Example 255, 1-(6-(6-fluoropyridin-3-yl)-1-(pyridin-3-ylsulfonyl)-1H-indol-3-yl)-N-methylmethanamine hydrochloride] | 11700 |
| CNCc1cn(S(=O)(=O)c2cccnc2)c2cc(Nc3c(F)cc(F)cc3F)ccc12 [Example 82, 3-((methylamino)methyl)-1-(pyridin-3-ylsulfonyl)-N-(2,4,6-trifluorophenyl)-1H-indol-6-amine hydrochloride] | 450 |
| CNCc1cn(S(=O)(=O)c2cccc(OC(F)(F)F)c2)c2cc(Nc3ccc(OC(F)(F)F)cc3OC)ccc12 [Example 202, N-(2-methoxy-4-(trifluoromethoxy)phenyl)-3-((methylamino)methyl)-1-((3-(trifluoromethoxy)phenyl)sulfonyl)-1H-indol-6-amine hydrochloride] | 580 |
| CNCc1cn(S(=O)(=O)c2cccnc2)c2cc(Nc3c(C)cc(F)cc3C)ccc12 [Example 81, N-(4-fluoro-2,6-dimethylphenyl)-3-((methylamino)methyl)-1-(pyridin-3-ylsulfonyl)-1H-indol-6-amine hydrochloride] | 310 |
| CNCc1cn(S(=O)(=O)c2cccc(OC)c2)c2cc(Nc3ccc(C)cc3F)ccc12 [Example 162, N-(2-fluoro-4-methylphenyl)-1-((3-methoxyphenyl)sulfonyl)-3-((methylamino)methyl)-1H-indol-6-amine hydrochloride] | 20 |
| CNCc1cn(S(=O)(=O)c2cccc(OC(F)(F)F)c2)c2cc(Nc3ccc(OC(F)(F)F)cc3C)ccc12 [Example 200, N-(2-methyl-4-(trifluoromethoxy)phenyl)-3-((methylamino)methyl)-1-((3-(trifluoromethoxy)phenyl)sulfonyl)-1H-indol-6-amine hydrochloride] | 900 |
| CNCc1cn(S(=O)(=O)c2cccnc2)c2cc(-c3cnc(F)c(C)c3)ccc12 [Example 257, 1-(6-(6-fluoro-5-methylpyridin-3-yl)-1-(pyridin-3-ylsulfonyl)-1H-indol-3-yl)-N-methylmethanamine hydrochloride] | 14200 |
| CNCc1cn(S(=O)(=O)c2cccc(F)c2)c2cc(Nc3ccc(C)nc3Cl)ncc12 [Example 358, N-(2-chloro-6-methylpyridin-3-yl)-1-((3-fluorophenyl)sulfonyl)-3-((methylamino)methyl)-1H-pyrrolo[3,2-c]pyridin-6-amine hydrochloride] | 1270 |
| CNCc1cn(S(=O)(=O)c2cccnc2)c2cc(Cc3ccc(C)nc3F)ccc12 [Example 283, 1-(6-((2-fluoro-6-methylpyridin-3-yl)methyl)-1-(pyridin-3-ylsulfonyl)-1H-indol-3-yl)-N-methylmethanamine hydrochloride] | 2630 |
| CNCc1cn(S(=O)(=O)c2cccc(Cl)c2)c2cc(Nc3ccc(C)c(F)c3F)ccc12 [Example 156, 1-((3-chlorophenyl)sulfonyl)-N-(2,3-difluoro-4-methylphenyl)-3-((methylamino)methyl)-1H-indol-6-amine hydrochloride] | 380 |
| CNCc1cn(S(=O)(=O)c2ccccc2)c2cc(Nc3ccc(C)cc3F)ccc12 [Example 222, N-(2-fluoro-4-methylphenyl)-3-((methylamino)methyl)-1-(phenylsulfonyl)-1H-indol-6-amine hydrochloride] | 1840 |
| CNCc1cn(S(=O)(=O)c2cccnc2)c2cc(Nc3cc(F)c(Br)cc3F)ccc12 [Example 79, N-(4-bromo-2,5-difluorophenyl)-3-((methylamino)methyl)-1-(pyridin-3-ylsulfonyl)-1H-indol-6-amine hydrochloride] | 1380 |
| CNCc1cn(S(=O)(=O)c2cccnc2)c2cc(Nc3ccc(C(F)(F)F)cc3)ccc12 [Example 13, 3-((methylamino)methyl)-1-(pyridin-3-ylsulfonyl)-N-(4-(trifluoromethyl)phenyl)-1H-indol-6-amine hydrochloride] | 1080 |
| CNCc1cn(S(=O)(=O)c2cccc(C(F)(F)F)c2)c2cc(Nc3ccc(C)c(F)c3F)ccc12 [Example 191, N-(2,3-difluoro-4-methylphenyl)-3-((methylamino)methyl)-1-((3-(trifluoromethyl)phenyl)sulfonyl)-1H-indol-6-amine hydrochloride] | 70 |
| CNCc1cn(S(=O)(=O)c2cccnc2)c2cc(Nc3ccc4c(c3)OCCO4)ccc12 [Example 97, N-(2,3-dihydrobenzo[b][1,4]dioxin-6-yl)-3-((methylamino)methyl)-1-(pyridin-3-ylsulfonyl)-1H-indol-6-amine hydrochloride] | 670 |
| CNCc1cn(S(=O)(=O)c2ccc(C(F)(F)F)cc2)c2cc(Nc3ccc(C)cc3Cl)ccc12 [Example 221, N-(2-chloro-4-methylphenyl)-3-((methylamino)methyl)-1-((4-(trifluoromethyl)phenyl)sulfonyl)-1H-indol-6-amine hydrochloride] | 1580 |
| CNCc1cn(S(=O)(=O)c2cccnc2)c2cc(Cc3ccc(OC(F)(F)F)cc3)ccc12 [Example 271, N-methyl-1-(1-(pyridin-3-ylsulfonyl)-6-(4-(trifluoromethoxy)benzyl)-1H-indol-3-yl)methanamine hydrochloride] | 3950 |
| CNCc1cn(S(=O)(=O)c2cccc(OC(F)(F)F)c2)c2cc(Nc3ccc(OC)cc3F)ccc12 [Example 199, N-(2-fluoro-4-methoxyphenyl)-3-(methylamino)methyl)-1-((3-(trifluoromethoxy)phenyl)sulfonyl)-1H-indol-6-amine hydrochloride] | 340 |

Results, then the compound that gave them:

| IC50 [nM] | SMILES |
| --- | --- |
| 430 | CNCc1cn(S(=O)(=O)c2cccnc2)c2cc(Nc3ccc(C(=O)OC)cc3Cl)ccc12 [Example 57, methyl 3-chloro-4-((3-((methylamino)methyl)-1-(pyridin-3-ylsulfonyl)-1H-indol-6-yl)amino)benzoate hydrochloride] |
| 410 | CNCc1cn(S(=O)(=O)c2cccnc2)c2cc(Nc3cc(F)ccc3F)ccc12 [Example 58, N-(2,5-difluorophenyl)-3-((methylamino)methyl)-1-(pyridin-3-ylsulfonyl)-1H-indol-6-amine hydrochloride] |
| 950 | CNCc1cn(S(=O)(=O)c2cccnc2)c2cc(Nc3ccc(C)nc3F)ccc12 [Example 112, N-(2-fluoro-6-methylpyridin-3-yl)-3-((methylamino)methyl)-1-(pyridin-3-ylsulfonyl)-1H-indol-6-amine hydrochloride] |
| 810 | CNCc1cn(S(=O)(=O)c2cccnc2)c2cc(Nc3ccc(C(F)(F)F)cc3C)ccc12 [Example 32, N-(2-methyl-4-(trifluoromethyl)phenyl)-3-((methylamino)methyl)-1-(pyridin-3-ylsulfonyl)-1H-indol-6-amine hydrochloride] |
| 20000 | CNCc1cn(S(=O)(=O)c2cccnc2)c2cc(Nc3ccnc(OC)c3Cl)ccc12 [Example 130, N-(3-chloro-2-methoxypyridin-4-yl)-3-((methylamino)methyl)-1-(pyridin-3-ylsulfonyl)-1H-indol-6-amine hydrochloride] |
| 500 | CCc1cc(C#N)ccc1Nc1ccc2c(CNC)cn(S(=O)(=O)c3cccnc3)c2c1 [Example 37, 3-ethyl-4-((3-((methylamino)methyl)-1-(pyridin-3-ylsulfonyl)-1H-indol-6-yl)amino)benzonitrile hydrochloride] |
| 270 | CNCc1cn(S(=O)(=O)c2cccnc2)c2cc(Nc3ccc(Br)cc3Cl)ccc12 [Example 44, N-(4-bromo-2-chlorophenyl)-3-((methylamino)methyl)-1-(pyridin-3-ylsulfonyl)-1H-indol-6-amine hydrochloride] |
| 350 | CNCc1cn(S(=O)(=O)c2cccnc2)c2cc(Nc3cc(OC)c(Cl)cc3Cl)ccc12 [Example 77, N-(2,4-dichloro-5-methoxyphenyl)-3-((methylamino)methyl)-1-(pyridin-3-ylsulfonyl)-1H-indol-6-amine hydrochloride] |
| 480 | CNCc1cn(S(=O)(=O)c2cccnc2)c2cc(Nc3ccc(Cl)nc3Cl)ccc12 [Example 119, N-(2,6-dichloropyridin-3-yl)-3-((methylamino)methyl)-1-(pyridin-3-ylsulfonyl)-1H-indol-6-amine hydrochloride] |
| 380 | CNCc1cn(S(=O)(=O)c2cccc(Cl)c2)c2cc(Nc3cccnc3OC)ccc12 [Example 157, 1-((3-chlorophenyl)sulfonyl)-N-(2-methoxypyridin-3-yl)-3-((methylamino)methyl)-1H-indol-6-amine hydrochloride] |
